Test results taken from ChEMBL document CHEMBL2380196, “New anticancer active and selective phenylene-bisbenzothiazoles: synthesis, antiproliferative evaluation and DNA binding” (Eur J Med Chem, 2013).
Active and inactive are the calls of the source. The rule behind the calls is not given here.

What was measured:
[1] = system: SK-BR-3; experiment: Cell cycle arrest in human SKBR3 cells assessed as accumulation in G1 phase at 5 uM after 24 hrs using propidium iodide staining by flow cytometry relative to control; format: functional
[2] = system: SK-BR-3; experiment: Cell cycle arrest in human SKBR3 cells assessed as accumulation in G1 phase at 10 uM after 48 hrs using propidium iodide staining by flow cytometry relative to control; format: functional
[3] = system: MIA PaCa-2; experiment: Cell cycle arrest in human MIAPaCa2 cells assessed as accumulation in G1 phase at 10 uM after 24 hrs using propidium iodide staining by flow cytometry relative to control; format: functional
[4] = system: HeLa; experiment: Cell cycle arrest in human HeLa cells assessed as accumulation in S phase at 5 uM after 48 hrs using propidium iodide staining by flow cytometry relative to control; format: functional
[5] = system: HeLa; experiment: Cell cycle arrest in human HeLa cells assessed as accumulation in S phase at 10 uM after 24 hrs using propidium iodide staining by flow cytometry relative to control; format: functional
[6] = system: MIA PaCa-2; experiment: Cell cycle arrest in human MIAPaCa2 cells assessed as accumulation in G2/M phase at 5 uM after 48 hrs using propidium iodide staining by flow cytometry relative to control; format: functional
[7] = system: HeLa; experiment: Cell cycle arrest in human HeLa cells assessed as accumulation in sub-G1 phase at 10 uM after 24 hrs using propidium iodide staining by flow cytometry relative to control; format: functional
[8] = system: MIA PaCa-2; experiment: Cell cycle arrest in human MIAPaCa2 cells assessed as accumulation in G1 phase at 5 uM after 48 hrs using propidium iodide staining by flow cytometry relative to control; format: functional
[9] = system: SK-BR-3; experiment: Cell cycle arrest in human SKBR3 cells assessed as accumulation in S phase at 5 uM after 48 hrs using propidium iodide staining by flow cytometry relative to control; format: functional
[10] = system: HeLa; experiment: Cell cycle arrest in human HeLa cells assessed as accumulation in sub-G1 phase at 10 uM after 48 hrs using propidium iodide staining by flow cytometry relative to control; format: functional
[11] = system: MIA PaCa-2; experiment: Cell cycle arrest in human MIAPaCa2 cells assessed as accumulation in S phase at 5 uM after 24 hrs using propidium iodide staining by flow cytometry relative to control; format: functional
[12] = system: MIA PaCa-2; experiment: Cell cycle arrest in human MIAPaCa2 cells assessed as accumulation in sub-G1 phase at 10 uM after 24 hrs using propidium iodide staining by flow cytometry relative to control; format: functional
[13] = system: SK-BR-3; experiment: Antiproliferative activity against human SKBR3 cells after 72 hrs by MTT assay; format: functional, cell-based; details: SK-BR-3, 72 h; for CC50: read-out: LC50 (the source's name)
[14] = system: HeLa; experiment: Cell cycle arrest in human HeLa cells assessed as accumulation in G2/M phase at 5 uM after 48 hrs using propidium iodide staining by flow cytometry relative to control; format: functional
[15] = system: HeLa; experiment: Cell cycle arrest in human HeLa cells assessed as accumulation in G2/M phase at 5 uM after 24 hrs using propidium iodide staining by flow cytometry relative to control; format: functional
[16] = system: HeLa; experiment: Cell cycle arrest in human HeLa cells assessed as accumulation in S phase at 10 uM after 48 hrs using propidium iodide staining by flow cytometry relative to control; format: functional
[17] = system: SK-BR-3; experiment: Cell cycle arrest in human SKBR3 cells assessed as accumulation in sub-G1 phase at 5 uM after 48 hrs using propidium iodide staining by flow cytometry relative to control; format: functional
[18] = system: HeLa; experiment: Cell cycle arrest in human HeLa cells assessed as accumulation in G1 phase at 10 uM after 48 hrs using propidium iodide staining by flow cytometry relative to control; format: functional
[19] = system: SK-BR-3; experiment: Cell cycle arrest in human SKBR3 cells assessed as accumulation in G2/M phase at 10 uM after 48 hrs using propidium iodide staining by flow cytometry relative to control; format: functional
[20] = system: HeLa; experiment: Cell cycle arrest in human HeLa cells assessed as accumulation in G1 phase at 10 uM after 24 hrs using propidium iodide staining by flow cytometry relative to control; format: functional
[21] = system: SK-BR-3; experiment: Induction of apoptosis in human SKBR3 cells at 10 uM after 48 hrs using propidium iodide/Annexin-V staining by flow cytometry relative to control; format: functional
[22] = system: MIA PaCa-2; experiment: Cell cycle arrest in human MIAPaCa2 cells assessed as accumulation in S phase at 10 uM after 48 hrs using propidium iodide staining by flow cytometry relative to control; format: functional
[23] = system: HeLa; experiment: Cell cycle arrest in human HeLa cells assessed as accumulation in sub-G1 phase at 5 uM after 24 hrs using propidium iodide staining by flow cytometry relative to control; format: functional
[24] = system: SK-BR-3; experiment: Cell cycle arrest in human SKBR3 cells assessed as accumulation in S phase at 5 uM after 24 hrs using propidium iodide staining by flow cytometry relative to control; format: functional
[25] = system: SK-BR-3; experiment: Cell cycle arrest in human SKBR3 cells assessed as accumulation in G2/M phase at 5 uM after 24 hrs using propidium iodide staining by flow cytometry relative to control; format: functional
[26] = system: SK-BR-3; experiment: Cell cycle arrest in human SKBR3 cells assessed as accumulation in S phase at 10 uM after 48 hrs using propidium iodide staining by flow cytometry relative to control; format: functional
[27] = system: MIA PaCa-2; experiment: Cell cycle arrest in human MIAPaCa2 cells assessed as accumulation in G2/M phase at 5 uM after 24 hrs using propidium iodide staining by flow cytometry relative to control; format: functional
[28] = system: SK-BR-3; experiment: Cell cycle arrest in human SKBR3 cells assessed as accumulation in sub-G1 phase at 10 uM after 24 hrs using propidium iodide staining by flow cytometry relative to control; format: functional
[29] = system: MIA PaCa-2; experiment: Cell cycle arrest in human MIAPaCa2 cells assessed as accumulation in sub-G1 phase at 5 uM after 48 hrs using propidium iodide staining by flow cytometry relative to control; format: functional
[30] = system: SK-BR-3; experiment: Cell cycle arrest in human SKBR3 cells assessed as accumulation in sub-G1 phase at 10 uM after 48 hrs using propidium iodide staining by flow cytometry relative to control; format: functional
[31] = system: MIA PaCa-2; experiment: Cell cycle arrest in human MIAPaCa2 cells assessed as accumulation in G2/M phase at 10 uM after 24 hrs using propidium iodide staining by flow cytometry relative to control; format: functional
[32] = system: SK-BR-3; experiment: Cell cycle arrest in human SKBR3 cells assessed as accumulation in G1 phase at 10 uM after 24 hrs using propidium iodide staining by flow cytometry relative to control; format: functional
[33] = system: DNA; experiment: Binding affinity to calf thymus DNA at 50 uM by Circular dichroism spectra analysis; format: nucleic-acid assay; details: Bos taurus
[34] = system: HeLa; experiment: Cell cycle arrest in human HeLa cells assessed as accumulation in G1 phase at 5 uM after 48 hrs using propidium iodide staining by flow cytometry relative to control; format: functional
[35] = system: HeLa; experiment: Cell cycle arrest in human HeLa cells assessed as accumulation in sub-G1 phase at 5 uM after 48 hrs using propidium iodide staining by flow cytometry relative to control; format: functional
[36] = system: MIA PaCa-2; experiment: Cell cycle arrest in human MIAPaCa2 cells assessed as accumulation in G1 phase at 5 uM after 24 hrs using propidium iodide staining by flow cytometry relative to control; format: functional
[37] = system: HeLa; experiment: Cell cycle arrest in human HeLa cells assessed as accumulation in G2/M phase at 10 uM after 48 hrs using propidium iodide staining by flow cytometry relative to control; format: functional
[38] = (§1) Antiproliferative activity against human WI38 cells after 72 hrs by MTT assay; format: cell-based, WI-38; details: human, WI-38 cells; read-out: LC50
[39] = system: WI-38; experiment: as §1; format: cell-based; details: Homo sapiens, WI-38, 72 h
[40] = system: SK-BR-3; experiment: Cell cycle arrest in human SKBR3 cells assessed as accumulation in G1 phase at 5 uM after 48 hrs using propidium iodide staining by flow cytometry relative to control; format: functional

Cl.Cl.c1cc(-c2nc3ccc(C4=NCCN4)cc3s2)cc(-c2nc3ccc(C4=NCCN4)cc3s2)c1
Activity [1]: 34.5%
Activity [2]: 22.1%
Activity [3]: 41.6%
Activity [4]: 39.3%
Activity [5]: 66.3%
Activity [6]: 17.1%
Activity [7]: 12.5%
Activity [8]: 52.1%
Activity [9]: 44%
Activity [10]: 15.5%
Activity [11]: 33.6%
Activity [12]: 8.1%
IC50 [13]: 0.04 µM
CC50 [13]: 0.87 µM
Activity [14]: 17.2%
Activity [15]: 24%
Activity [16]: 71.4%
Activity [17]: 21.6%
Activity [18]: 20.4%
Activity [19]: 11.1%
Activity [20]: 31.7%
Activity [21]: 75%
Activity [22]: 50.8%
Activity [23]: 14.4%
Activity [24]: 58.9%
Activity [25]: 4.2%
Activity [26]: 67.8%
Activity [27]: 10.9%
Activity [28]: 23.1%
Activity [29]: 20.4%
Activity [30]: 12.5%
Activity [31]: 21.3%
Activity [32]: 28.7%
Activity [33]: Active
Activity [34]: 47.5%
Activity [35]: 13.3%
Activity [36]: 60.2%
Activity [37]: 13.2%
CC50 at 72 h [38]: 6.63 µM
IC50 [39]: 0.15 µM
Activity [40]: 36.2%

Cl.Cl.c1cc2nc(-c3ccc(-c4nc5ccc(C6=NCCN6)cc5s4)cc3)sc2cc1C1=NCCN1
Activity [1]: 58.9%
Activity [2]: 41.3%
Activity [3]: 40.9%
Activity [4]: 49.6%
Activity [5]: 58.7%
Activity [6]: 18.4%
Activity [7]: 15.5%
Activity [8]: 45.9%
Activity [9]: 32.6%
Activity [10]: 23.2%
Activity [11]: 55%
Activity [12]: 33.1%
IC50 [13]: 1.18 µM
CC50 [13]: 8.07 µM
Activity [14]: 18.9%
Activity [15]: 13.4%
Activity [16]: 44%
Activity [17]: 27.5%
Activity [18]: 42.3%
Activity [19]: 20.3%
Activity [20]: 34.2%
Activity [21]: 15%
Activity [22]: 40.9%
Activity [23]: 9.9%
Activity [24]: 33.5%
Activity [25]: 11.6%
Activity [26]: 42.3%
Activity [27]: 5.8%
Activity [28]: 31.6%
Activity [29]: 35.7%
Activity [30]: 32.1%
Activity [31]: 19%
Activity [32]: 50.9%
Activity [33]: inactive
Activity [34]: 31.9%
Activity [35]: 22.7%
Activity [36]: 35.2%
Activity [37]: 14.5%
CC50 at 72 h [38]: > 100 µM
IC50 [39]: > 100 µM
Activity [40]: 53.6%
